Laboratory results: US20240158355A1, “BET SUBFAMILY INHIBITORS AND METHODS USING SAME” (Baylor College of Medicine, priority 2021, published 2024)

Experiments:
mice = details: cited from earlier work
[1] = mouse, in vivo; cited from earlier work
BRD4-BD2 = BRD4-BD2 (Homo sapiens (Human), UniProt O60885); details: cited from earlier work
BD2 = details: cited from earlier work
BRDT-BD2 [2] = molecular target: T1, BRDT-BD2 (Homo sapiens (Human), UniProt Q58F21); experiment: AlphaScreen bromodomain proximity assay (competition with biotinylated (+)-JQ1), BRDT-BD2; format: binding
BRDT-BD1 = BRDT-BD1 (Homo sapiens (Human), UniProt Q58F21); experiment: AlphaScreen bromodomain proximity assay (competition with biotinylated (+)-JQ1), BRDT-BD1; format: binding; details: NE: no effect at 10 μM
[3] = Metabolic stability assay in mouse liver microsomes; format: in vitro ADME; details: for half-life at 2 μM: 0.5 mg protein/mL, 37° C., read-out: MLM t1/2
Method: (§1) Compounds 3-10, 15, 17, and 20-22 (2.0 μM) were incubated in the mouse or human liver microsomes (0.5 mg protein/mL) at 37° C. […] The reaction mixtures were centrifuged at rcf 15,000 for 15 min. […] The column temperature was maintained at 40° C. […] Q Exactive MS was operated in positive or negative mode with electrospray ionization.

[4] = Metabolic stability assay in human liver microsomes; format: in vitro ADME; details: for half-life at 2 μM: read-out: HLM t1/2
Method: as §1

His-BRDT-BD2 = His-BRDT-BD2 (Homo sapiens (Human), UniProt Q58F21); details: 0 = theoretically present in the library but not detected in the sequencing data
bromodomains = details: BROMOscan competition binding
Method: (§2) Binding constants (Kds) were calculated with a standard dose-response curve using the Hill equation:
1+(KdHill Slope/DoseHill Slope)
The Hill Slope was set to −1.
(§3) Curves were fitted using a non-linear least square fit with the Levenberg-Marquardt algorithm.

BRDT-BD2 [5] = molecular target: T1, BRDT-BD2; details: BromoKdELECT dose-response
Method: as §2
1+(KdHill Slope/DoseHill Slope)
The Hill Slope was set to −1.
as §3

[6] = data >60 min is an extrapolated estimate
[7] = 2.0 μM, 0.5 mg protein/mL, 37° C.

| Compound | IC50 (BRDT-BD2 [2]) [µM] | IC50 (BRDT-BD1) [µM] | half-life at 2 μM [3] [min] | Count (observed molecule count in the DEC-Tec screen against BRDT-BD2) (His-BRDT-BD2) | other results |
| --- | --- | --- | --- | --- | --- |
| Cc1sc2c(c1C)C(c1ccc(Cl)cc1)=N[C@@H](CC(=O)OC(C)(C)C)c1nnc(C)n1-2 [(+)-JQ1, tert-butyl (S)-2-(4-(4-chlorophenyl)-2,3,9-trimethyl-6H-thieno[3,2-f][1,2,4]triazolo[4,3-a][1,4]diazepin-6-yl)acetate] |  |  |  |  | contraceptive effect (mice): complete and reversible contraceptive effect; bioavailable across the blood-testis boundary [1]: 100% |
| CCNC(=O)c1cc2c(-c3cc(C(C)(C)O)ccc3Oc3c(C)cc(F)cc3C)cn(C)c(=O)c2[nH]1 [ABBV-744] |  |  |  |  | selectivity for BRD4-BD2 (BRD4-BD2): 95-290 fold |
| CC(=O)Nc1c(F)cc(C(=O)N[C@H]2CC[C@H](O)CC2)cc1O[C@@H](C)c1ccccc1 [GSK046] |  |  |  |  | selectivity for BD2 over BD1 (BD2): > 300 fold |
| CNC(=O)c1ccc(C(=O)Nc2cc(NC(=O)c3ccc4c(c3)c(-c3ccc(N)cc3C)nn4C)ccc2OC)cc1 [compound 4, N^1-(5-(3-(4-Amino-2-methylphenyl)-1-methyl-1H-indazole-5-carboxamido)-2-methoxyphenyl)-N^4-methylterephthalamide] | 0.012 | > 10 | 14 | 838 | half-life at 2 μM [4, 6]: 100 min |
| CNC(=O)c1ccc(C(=O)Nc2cc(NC(=O)c3ccc4c(c3)c(-c3ccc(C)cc3C)nn4C)ccc2OC)cc1 [compound 5, N^1-(5-(3-(2,4-Dimethylphenyl)-1-methyl-1H-indazole-5-carboxamido)-2-methoxyphenyl)-N^4-methylterephthalamide] | 0.026 | > 10 | 20 | 515 | half-life at 2 μM [4, 7]: 18 min |
| CNC(=O)c1ccc(C(=O)Nc2cc(NC(=O)c3ccc4c(c3)c(-c3ccccc3C)nn4C)ccc2OC)cc1 [compound 6, N^1-(2-Methoxy-5-(1-methyl-3-(o-tolyl)-1H-indazole-5-carboxamido)phenyl)-N^4-methylterephthalamide] | 0.061 | 6.3 | 40 | 0 | half-life at 2 μM [4, 7]: 17 min |
| CNC(=O)c1ccc(C(=O)Nc2cc(NC(=O)c3ccc4c(c3)c(-c3ccc(N)cc3)nn4C)ccc2OC)cc1 [compound 7, N^1-(5-(3-(4-Aminophenyl)-1-methyl-1H-indazole-5-carboxamido)-2-methoxyphenyl)-N^4-methylterephthalamide] | 0.015 | > 10 | 51 | 63 | half-life at 2 μM [4, 6]: 250 min |
| CNC(=O)c1ccc(C(=O)Nc2cc(NC(=O)c3ccc4c(c3)c(-c3ccc(N)nc3)nn4C)ccc2C)cc1 [compound 10, N^1-(5-(3-(6-Aminopyridin-3-yl)-1-methyl-1H-indazole-5-carboxamido)-2-methylphenyl)-N^4-methylterephthalamide] | 0.017 | > 10 |  | 3 | mouse microsomal stability ([3]; in words): high metabolic stability; human microsomal stability ([4]; in words): high metabolic stability |
| CC(=O)Nc1cc(NC(=O)c2ccc3c(c2)c(-c2ccc(N)cc2C)nn3C)ccc1C [compound 20, N-(3-Acetamido-4-methylphenyl)-3-(4-amino-2-methylphenyl)-1-methyl-1H-indazole-5-carboxamide] | 0.008 | > 10 |  |  | binding selectivity across bromodomains (bromodomains): potent and selective binding to only the second bromodomains within the BET subfamily; potency at binding BRDT-BD2 relative to (+)-JQ1 (BRDT-BD2 [5]): more than 20 fold |
